Values joined by “and” are separate entries in the source; they are usually repeats but may differ in a detail not shown here. Identical values can stand only once. Like-named read-outs stand apart in the source and are kept apart here.

For data set [1], the system named is ZFL cells. Description: Biotransformation of BDE-47 in ZFL cells (metabolites in cells and medium).
Data set [2] relates to HepG2 cells. More on the design: method as in PMID 37289209. The conditions noted are these: HepG2 cells 48 h, 20 mg·L^−1 BDE-47, calculated with estimated Cfree percentage, cited from earlier work.
For data set [3], the system named is zebrafish eleutheroembryos. More on the design: method as in PMID 36705440. The conditions noted are these: zebrafish embryos 48 h, larvae samples; cited from earlier work.
Data set [4] relates to ZFL cells. More on the design: method as in PMID 39103099. The conditions noted are these: exposure to 10 mg·L^−1 PHE, previous study; cited from earlier work.
The conditions of data set [5]: partition constant PA fiber/medium; cited from earlier work.
Data set [6] concerns ZFL cells. The conditions noted are these: cited from earlier work; for Ratio MBM/experimental of internal concentration: ref De Oro-Carretero and Sanz-Landaluze 2024.
Details of data set [7]: method as in PMID 39103099. The conditions noted are these: binding constant to BSA protein of FBS; cited from earlier work.
Data set [8] can be described thus: Experimental determination of free bioavailable concentration (Cfree,exp) in exposure medium by SPME. It is filed as in vitro ADME. The conditions noted are these: for Cfree, exp: 24–48 h. The method, then:
In parallel with the exposure experiment for the evaluation of bioaccumulation and biotransformation described in the previous sections, an experiment was performed to estimate experimentally the free bioavailable concentration (Cfree,exp) in the test medium. For this purpose, an experiment was designed to simulate the test conditions, and Cfree was determined using solid-phase microextraction (SPME), following the fiber method developed by Henneberger et al..
PDMS-coated glass microfibers (30 µm thick, 13.19 µL/m coating volume) were cut into 1.5 cm pieces and cleaned in methanol for more than 24 h prior to the experiment, with the solvent replaced at least three times. The cleaned and dried fiber was placed in a glass vial with 1 mL of sample exposure medium containing 1.8 and 2.6 mg·L^−1 BDE-47. Three replicates were prepared for each condition. A portion of the initial sample was stored at −20 °C until analysis. The vials were then sealed and incubated with rotation at 28 °C for 72 h until equilibrium of BDE-47 distribution among the fiber, medium, and binding to the predominant serum protein of the culture (Bovine serum albumin, BSA) was reached. Once at equilibrium, the fibers were extracted from the vials and desorbed with 400 µL isooctane for 24 h with rotation. Finally, the extract was analyzed by GC-MS-µECD, as described in Section 2.5. The concentration of BDE-47 in the initial sample (Cmed,0h) and in the resulting media after equilibration (Cmed,eq) was determined according to the procedure described in Section 2.5, to confirm the actual mass balance.
Since this study evaluates and discusses the behavior of BDE-47 in comparison to observations from a previous study with phenanthrene, as explained in the introduction section, the experimental Cfree of phenanthrene was also determined, as it had not been measured previously. In this case, the difference in the process was that PA fibers (36 µm thick, 16.71 µL/m coating volume) were used. Samples of 10 and 20 mg·L^−1 PHE were prepared, and the fibers and samples were incubated for 24–48 h until equilibrium was reached, and desorbed with hexane for 3 h.
To determine the free concentration, concentration in the SPME fiber (Cfiber) was first estimated using Equation (1) from the concentration measured in the desorption extract (Cdes), the desorption volume (Vdes) and the coating volume of the fiber (Vfiber). This volume was estimated according to the coating volume and the length of the fiber.(1) Cfiber=Cdes·Vdes/Vfiber
Next, Cfree,exp was determined at the time before the SPME fiber was added to the system, according to Equation (2). For this, the concentration measured in the fiber equilibrated with the medium (PDMS-BDE-47-BSA or PA-PHE-BSA), the concentration measured in the initial sample (Cmed,0h), and the partition constant of the equilibrium formed between the fiber and the medium (log DPDMS/medium; BDE-47 = 5.84 [25]; log DPA/medium; PHE = 6.69 [26]) were used.(2) Cfree=Cmed,0h·Vsample/Dfiber/medium·Cmed,0h·Vsample/Cfiber−Vfiber

On the set-up of data set [9]: method as in PMID 36264934. The conditions noted are these: dialysis, DMEM + 10% newborn calf serum, Cnom 5 μmol·L^−1, 1% DMSO; cited from earlier work.

Consider `Oc1cc(Br)ccc1Oc1ccc(Br)cc1Br` [2′-OH-BDE-28], for which, in data set [1] (BDE-47 at 1.6 and 2.8 mg·L^−1, 24–72 h), the “detection of the metabolite in ZFL cell and medium samples on exposure to BDE-47” value is “significant and increasing concentration over time”.
With `Oc1c(Br)ccc(Oc2ccc(Br)cc2Br)c1Br` [3-OH, 3-OH-BDE-47], the “biotransformation ratio metabolite / free bioavailable BDE-47 concentration” value in data set [1] (medium samples, 24 h, Cnominal BDE-47 1.6 mg·L^−1) is 0.07; in data set [1] (medium samples, 24 h, Cnominal BDE-47 2.8 mg·L^−1), 0.08; in data set [1] (medium samples, 48 h, Cnominal BDE-47 1.6 mg·L^−1), 0.08; in [1] (medium samples, 48 h, Cnominal BDE-47 2.8 mg·L^−1) it was 0.08; in data set [1] (medium samples, 72 h, Cnominal BDE-47 1.6 mg·L^−1) it was 0.09; in data set [1] (medium samples, 72 h, Cnominal BDE-47 2.8 mg·L^−1) it was 0.15. Besides, the “biotransformation ratio metabolite / BDE-47 concentration” value in data set [2] (medium samples) is on record as 0.13.
For `COc1cc(Oc2ccc(Br)cc2Br)c(Br)cc1Br` [5-MeO, 5-MeO-BDE-47], the “biotransformation ratio metabolite / free bioavailable BDE-47 concentration” value in data set [1] (cell samples, 24 h, Cnominal BDE-47 1.6 mg·L^−1) was 0.11; in [1] (cell samples, 24 h, Cnominal BDE-47 2.8 mg·L^−1), 0.17; in [1] (cell samples, 48 h, Cnominal BDE-47 1.6 mg·L^−1) it was 0.12; in data set [1] (cell samples, 48 h, Cnominal BDE-47 2.8 mg·L^−1), 0.18; in data set [1] (cell samples, 72 h, Cnominal BDE-47 1.6 mg·L^−1) it was 0.15; in data set [1] (cell samples, 72 h, Cnominal BDE-47 2.8 mg·L^−1), 0.20. Moreover, the “biotransformation ratio metabolite / BDE-47 concentration” value is on record as 0.06–0.13 in [3] and 0.10 in [2] (cell samples).
As to `Oc1cc(Oc2ccc(Br)cc2Br)c(Br)cc1Br` [5-OH, 5-OH-BDE-47], the “biotransformation ratio metabolite / BDE-47 concentration” value in [2] (medium samples) is 0.2.
Consider `c1ccc2c(c1)ccc1ccccc12` [PHE, phenanthrene], for which, in data set [4], the BCF48 h was 393 L/kg. Also, the BCFk in [4] is 986 L/kg. Moreover, the “log DPA/medium” value in data set [5] was 6.69. The “Ratio MBM/experimental of internal concentration” value in data set [6] (24h, 10 mg·L-1, ZFL cells) was 491%; in data set [6] (24h, 50 mg·L-1, ZFL cells) it was 510%; in [6] (48h, 10 mg·L-1, ZFL cells), 532%; in data set [6] (48h, 50 mg·L-1, ZFL cells), 449%; in data set [6] (72h, 10 mg·L-1, ZFL cells), 421%; in data set [6] (72h, 50 mg·L-1, ZFL cells), 402%. The BCFMBM in data set [6] (ZFL cells, previous study) was 1656 L/kg. In addition, in data set [6] (ZFL cells, previous study), the “ratio of MBM vs. experimental Ccell” value is on record as “above 100%”. For the same compound, the “free concentration as % of total concentration” value in data set [6] (assays with ZFL cells, previous study) was 1.7%. The “log DBSA/W” value in [7] is 3.81. Moreover, the “% Cfree, exp” value in data set [8] (Cnom 10 mg·L^−1, % of total concentration) is 2.4% and 2.4 ± 0.2%; in data set [8] (Cnom 20 mg·L^−1, % of total concentration), 2.9% and 2.9 ± 0.2%. The “Cfree, exp” value is given as “(0.22 ± 0.02) mg·L^−1” in data set [8] (Cnom 10 mg·L^−1, PA fiber) and “(0.52 ± 0.04) mg·L^−1” in data set [8] (Cnom 20 mg·L^−1, PA fiber).
As for `CC/C(=C(\c1ccccc1)c1ccc(OCCN(C)C)cc1)c1ccccc1` [tamoxifen], the “decrease of free concentration from the initial concentration” value in [9] was “up to 50%”.

Source of the values: publication PMC12194305, “Assessing Bioconcentration and Biotransformation of BDE-47 In Vitro: The Relevance of Bioavailable and Intracellular Concentrations” (Journal of Xenobiotics, 2025).
